# Measured values: US8993618B2, “Composition for treating influenza A (H1N1) virus and a preparation method therefor” (priority 2010, dated 2015)
# Read-outs that look alike come from different tables or passages of the source.
# Columns and labels:
# in vitro [1] = settings: human, IC50 cytotoxicity Hep 3B
# influenza A virus (H1N1) = test: microbe, parasite or virus in culture; format: cell-based; settings: for IC50 / IC90: Influenza A virus; for IC50: read-out: IC50, influenza A (H1N1) antiviral activity; for IC90: read-out: IC90, influenza A (H1N1) antiviral activity
# in vitro [2] = settings: human, IC50 cytotoxicity MCF 7
# [3] = MTT cytotoxicity assay, MDA-MB-231; settings: human, MDA-MB-231 breast cancer cells
# [4] = MTT cytotoxicity assay, MCF 7; settings: human, MCF 7 breast cancer cells, IC50 cytotoxicity MCF 7, MTT
# [5] = MTT cytotoxicity assay, Hep 3B; settings: human, Hep 3B liver cancer cells, IC50 cytotoxicity Hep 3B
# [6] = MTT cytotoxicity assay, Hep G2; settings: human, Hep G2 liver cancer cells
# [7] = MTT cytotoxicity assay, A 549; settings: human, A 549 lung cancer cells
# [8] = MTT cytotoxicity assay, Ca9-22; settings: human, Ca9-22 oral cancer cells
# in vitro [9] = settings: human
# in vitro [10] = settings: human; remark: listed apart in the source
# in vitro [11] = settings: human; remark: listed apart in the source
# in vitro [12] = settings: human; remark: listed apart in the source
# [13] = test system: Hep 3B liver cancer cell line
# [14] = test system: Hep G2 liver cancer cell line
# [15] = test system: Ca9-22 oral cancer cell line
# [16] = test system: MCF 7 breast cancer cell line
# [17] = test system: MDA-MB-231 breast cancer cell line
# [18] = test system: A 549 lung cancer cell line
# [19] = test system: MDA-MB-231 breast cancer cell line; test: MTT cytotoxicity assay, MDA-MB-231; settings: MTT, 3 days
# [20] = test system: MCF 7 breast cancer cell line; test: MTT cytotoxicity assay, MCF 7; settings: MTT, 3 days
# [21] = test system: Hep 3B liver cancer cell line; test: MTT cytotoxicity assay, Hep 3B; settings: 3 days
# [22] = test system: Hep G2 liver cancer cell line; test: MTT cytotoxicity assay, Hep G2; settings: MTT, 3 days
# [23] = test system: A 549 lung cancer cell line; test: MTT cytotoxicity assay, A 549; settings: MTT, 3 days
# [24] = test system: Ca9-22 oral cancer cell line; test: MTT cytotoxicity assay, Ca9-22; settings: MTT, 3 days
# [25] = H1N1, 72 h, MDCK cells, XTT, 3 days, concentration achieving 50% cytoprotection
# [26] = H1N1, 72 h, MDCK cells, XTT, 3 days
# [27] = MDCK cells, XTT, 3 days, concentration achieving 50% cytoprotection
compound,measurement,setting,value
"COC(=O)CC[C@H]1C(=C(C)C)CC[C@H](C)[C@]1(C)COc1ccc2ccc(=O)oc2c1 [Compound 7, methyl galbanate]",IC50 at 3 days,in vitro [1],4.33 µg/mL
same,IC50,influenza A virus (H1N1); [25],0.26 ± 0.03 µg/mL
same,IC90,influenza A virus (H1N1); [26],0.44 ± 0.05 µg/mL
same,IC50 at 3 days,in vitro [2],> 20 µg/mL
"CC(C)=CCC/C(C)=C/C(O)C/C(C)=C/COc1ccc2ccc(=O)oc2c1 (stereo not drawn) [Compound 4, 5′-hydroxyumbelliprenin]","IC90, influenza A (H1N1) antiviral activity","influenza A virus (H1N1); MDCK cells, XTT, 3 days",0.62 ± 0.08 µg/mL
same,"IC50, influenza A (H1N1) antiviral activity",influenza A virus (H1N1); [27],0.36 ± 0.03 µg/mL
"COc1cc(C=O)ccc1O (single isomer, unassigned) [Vanillin, vanillin]",IC50 at 3 days,[3],> 20 µg/mL
same,IC50 at 3 days,[4],15.7 µg/mL
same,IC50 at 3 days,[5],> 20 µg/mL
same,IC50 at 3 days,[6],> 20 µg/mL
same,IC50 at 3 days,[7],16.4 µg/mL
same,IC50 at 3 days,[8],> 20 µg/mL
"C/C(=C\COc1ccc2ccc(=O)oc2c1)CC[C@@H]1C(C)(C)[C@H]2CC[C@]1(C)O2 [Compound 9, farnesiferol C]","IC90, influenza A (H1N1) antiviral activity","influenza A virus (H1N1); MDCK cells, XTT, 3 days",0.50 ± 0.07 µg/mL
same,"IC50, influenza A (H1N1) antiviral activity",influenza A virus (H1N1); [27],0.29 ± 0.02 µg/mL
"CC1=CC(=O)[C@@H]2C(C)(C)[C@H](O)CC[C@@]2(C)[C@@H]1COc1ccc2ccc(=O)oc2c1 [Compound 12, ligupersin A]","IC90, influenza A (H1N1) antiviral activity","influenza A virus (H1N1); MDCK cells, XTT, 3 days",1.75 ± 0.12 µg/mL
same,"IC50, influenza A (H1N1) antiviral activity",influenza A virus (H1N1); [27],0.86 ± 0.08 µg/mL
"C[C@@H]1C[C@@H](O)[C@]2(C)[C@@H](C)C(=O)CC[C@H]2[C@]1(C)COc1ccc2ccc(=O)oc2c1 (single isomer, unassigned) [Kamolonol, kamolonol]",IC50 at 3 days,in vitro [9],> 20 µg/mL
same,IC50 at 3 days,in vitro [10],> 20 µg/mL
same,IC50 at 3 days,in vitro [1],17.9 µg/mL
same,IC50 at 3 days,in vitro [2],> 20 µg/mL
same,IC50 at 3 days,in vitro [11],> 20 µg/mL
same,IC50 at 3 days,in vitro [12],> 20 µg/mL
"CC1=CC(=O)[C@@H]2C(C)(C)C(=O)CC[C@@]2(C)[C@@H]1COc1ccc2ccc(=O)oc2c1 [Compound 13, epi-conferdione]","IC90, influenza A (H1N1) antiviral activity","influenza A virus (H1N1); MDCK cells, XTT, 3 days",0.37 ± 0.03 µg/mL
same,"IC50, influenza A (H1N1) antiviral activity",influenza A virus (H1N1); [27],0.32 ± 0.02 µg/mL
"NC12CC3CC(CC(C3)C1)C2 [Amantadine, reference compound]",IC50,"influenza A virus (H1N1); H1N1, MDCK, 72 h",0.92 ± 0.04 µg/mL
same,IC90,"influenza A virus (H1N1); H1N1, MDCK, 72 h",1.73 ± 0.11 µg/mL
"CC(=O)OC(CC=C(C)C)/C(C)=C/[C@@H](O)C/C(C)=C/COc1ccc2ccc(=O)oc2c1 (stereo partly drawn) [Compound 6, 8′-acetoxy-5′S-hydroxyumbelliprenin]",IC50 cytotoxicity Hep 3B,[13],9.82 µg/mL
same,IC50 cytotoxicity Hep G2,[14],15.59 µg/mL
same,IC50 cytotoxicity Ca9-22,[15],14.23 µg/mL
same,IC50 cytotoxicity MCF 7,[16],>20 µg/mL
same,"IC90, influenza A (H1N1) antiviral activity","influenza A virus (H1N1); MDCK cells, XTT, 3 days",1.56 ± 0.11 µg/mL
same,"IC50, influenza A (H1N1) antiviral activity",influenza A virus (H1N1); [27],0.81 ± 0.06 µg/mL
same,IC50 cytotoxicity MDA-MB-231,[17],>20 µg/mL
same,IC50 cytotoxicity A 549,[18],>20 µg/mL
foetisulfide C,IC50 cytotoxicity MDA-MB-231,[19],>20 µg/mL
same,IC50 cytotoxicity MCF 7,[20],>20 µg/mL
same,IC50 cytotoxicity Hep 3B,[21],19.21 µg/mL
same,IC50 cytotoxicity Hep G2,[22],>20 µg/mL
same,IC50 cytotoxicity A 549,[23],9.14 µg/mL
same,IC50 cytotoxicity Ca9-22,[24],16.48 µg/mL
"CC(C)=C1CC[C@H](C)[C@](C)(COc2ccc3ccc(=O)oc3c2)[C@H]1CCC(=O)O [Compound 8, galbanic acid]",IC50,influenza A virus (H1N1); [25],0.45 ± 0.04 µg/mL
same,IC90,influenza A virus (H1N1); [26],0.88 ± 0.07 µg/mL
"CC(=O)O[C@H](CC/C(C)=C/CC/C(C)=C/COc1ccc2ccc(=O)oc2c1)C(C)(C)O [Compound 2, 10′R-Acetoxy-11′-hydroxyumbelliprenin]",IC50 at 3 days,in vitro [9],> 20 µg/mL
same,IC50 at 3 days,in vitro [10],> 20 µg/mL
same,IC50 at 3 days,in vitro [1],19.8 µg/mL
same,IC50,influenza A virus (H1N1); [25],0.94 ± 0.07 µg/mL
same,IC90,influenza A virus (H1N1); [26],1.98 ± 0.12 µg/mL
same,IC50 at 3 days,in vitro [2],> 20 µg/mL
same,IC50 at 3 days,in vitro [11],> 20 µg/mL
same,IC50 at 3 days,in vitro [12],> 20 µg/mL
"C=C1CC[C@@H]2C(C)(C)[C@H](O)CC[C@@]2(C)[C@H]1COc1ccc2ccc(=O)oc2c1 [Compound 10, farnesiferol A]",IC50 cytotoxicity Hep 3B,[13],7.66 µg/mL
same,IC50 cytotoxicity Hep G2,[14],14.89 µg/mL
same,IC50 cytotoxicity MCF 7,[16],15.57 µg/mL
same,"IC90, influenza A (H1N1) antiviral activity","influenza A virus (H1N1); MDCK cells, XTT, 3 days",0.64 ± 0.07 µg/mL
same,"IC50, influenza A (H1N1) antiviral activity",influenza A virus (H1N1); [27],0.51 ± 0.04 µg/mL
same,IC50 cytotoxicity MDA-MB-231,[17],19.00 µg/mL
same,IC50 cytotoxicity Ca9-22,[24],12.07 µg/mL
same,IC50 cytotoxicity A 549,[18],15.79 µg/mL
"C/C(=C\COc1ccc2ccc(=O)oc2c1)CC/C=C(\C)CCC(O)C(C)(C)O (stereo not drawn) [Compound 5, 10′R-karatavicinol]",IC50 cytotoxicity Hep 3B,[13],>20 µg/mL
same,IC50 cytotoxicity Hep G2,[14],>20 µg/mL
same,IC50 cytotoxicity Ca9-22,[15],>20 µg/mL
same,IC50 cytotoxicity MCF 7,[16],14.27 µg/mL
same,"IC90, influenza A (H1N1) antiviral activity","influenza A virus (H1N1); MDCK cells, XTT, 3 days",2.05 ± 0.14 µg/mL
same,"IC50, influenza A (H1N1) antiviral activity",influenza A virus (H1N1); [27],0.99 ± 0.07 µg/mL
same,IC50 cytotoxicity MDA-MB-231,[17],>20 µg/mL
same,IC50 cytotoxicity A 549,[18],10.97 µg/mL
"CC1=CC[C@@H]2C(C)(C)[C@@H](O)CC[C@@]2(C)[C@@H]1COc1ccc2ccc(=O)oc2c1 [Compound 11, conferol]",IC50 cytotoxicity Hep 3B,"[13]; human, 3 days",2.63 µg/mL
same,IC50 at 3 days,in vitro [1],2.6 µg/mL
same,IC50 cytotoxicity MCF 7,"[16]; human, 3 days",3.38 µg/mL
same,IC50,influenza A virus (H1N1); [25],0.47 ± 0.05 µg/mL
same,IC90,influenza A virus (H1N1); [26],0.83 ± 0.09 µg/mL
same,IC50 at 3 days,in vitro [2],3.4 µg/mL
"COc1cccc2c1C(=O)c1c(O)c3c(c(O)c1C2=O)C[C@@](O)(C(=O)CO)C[C@@H]3O[C@H]1C[C@H](N)[C@H](O)[C@H](C)O1 [Doxorubicin, reference compound]",IC50 at 3 days,[5],0.41 µg/mL
same,IC50 at 3 days,[6],0.16 µg/mL
same,IC50 at 3 days,[7],0.35 µg/mL
same,IC50 at 3 days,[8],0.14 µg/mL
"C=C1CC[C@]2(C)C(C)(C)[C@@H](OC(C)=O)CC[C@]2(C)[C@H]1COc1ccc2ccc(=O)oc2c1 (single isomer, unassigned) [Polyanthinin, polyanthinin]",IC50 at 3 days,in vitro [1],5.9 µg/mL
same,IC50 at 3 days,in vitro [2],9.94 µg/mL
